Reference: doi:10.1101/2023.05.15.540828, “Optimization of 3-Cyano-7-cyclopropylamino-pyrazolo[1,5-a]pyrimidines Toward the Development of an In Vivo Chemical Probe for CSNK2A” (bioRxiv, 2023)

Legend:
CSNK2A1 = target: T1, CSNK2A1 (Homo sapiens, UniProt P68400); assay: NanoBRET in-cell target engagement, Tracer K10 displacement, HEK293; assay type: cell-based
T1 construct: CSNK2A-NLuc fusion

CSNK2A2 = target: T2, CSNK2A2 (Homo sapiens, UniProt P19784); assay: as above; assay type: cell-based
T2 construct: CSNK2A-NLuc fusion
T2 sequence (P19784 whole entry, the tested form may be a part): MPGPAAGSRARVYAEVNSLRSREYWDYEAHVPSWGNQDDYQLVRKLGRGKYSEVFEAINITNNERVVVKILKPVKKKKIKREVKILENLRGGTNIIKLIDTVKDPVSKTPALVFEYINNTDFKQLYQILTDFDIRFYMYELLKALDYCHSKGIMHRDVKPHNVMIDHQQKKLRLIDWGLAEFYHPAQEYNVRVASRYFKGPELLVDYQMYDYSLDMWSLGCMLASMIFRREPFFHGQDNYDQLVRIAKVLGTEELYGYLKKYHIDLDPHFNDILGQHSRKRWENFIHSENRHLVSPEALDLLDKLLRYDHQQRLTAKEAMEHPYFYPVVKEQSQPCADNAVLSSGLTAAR

T1 sequence (P68400 whole entry, the tested form may be a part): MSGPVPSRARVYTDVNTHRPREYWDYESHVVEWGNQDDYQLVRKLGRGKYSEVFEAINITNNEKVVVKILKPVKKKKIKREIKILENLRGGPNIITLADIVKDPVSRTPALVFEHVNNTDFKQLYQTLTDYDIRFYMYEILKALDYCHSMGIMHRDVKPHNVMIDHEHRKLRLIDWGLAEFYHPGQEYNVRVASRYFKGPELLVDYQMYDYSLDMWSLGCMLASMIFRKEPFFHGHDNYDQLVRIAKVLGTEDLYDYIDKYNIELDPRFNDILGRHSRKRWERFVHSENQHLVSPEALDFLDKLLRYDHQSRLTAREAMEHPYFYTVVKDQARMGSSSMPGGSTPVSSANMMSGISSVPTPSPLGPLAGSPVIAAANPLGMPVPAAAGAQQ

Q: Which results are given for `CC(=O)Nc1cc(Nc2cc(NC3CC3)n3ncc(C#N)c3n2)ccc1N[C@@H]1CCCOC1` [2m, (R)-N-(5-((3-cyano-7-(cyclopropylamino)pyrazolo[1,5-a]pyrimidin-5-yl)amino)-2-((tetrahydro-2H-pyran-3-yl)amino)phenyl)acetamide]?
A: [drawing 10] / CSNK2A1 pIC50^a (CSNK2A1): 8.0 pIC50; [drawing 10] / CSNK2A2 pIC50^a (CSNK2A2): 8.1 pIC50

Q: For `CN[C@H]1CCCN(c2ccc(Nc3cc(NC4CC4)n4ncc(C#N)c4n3)cc2NC(C)=O)C1` [2c, (S)-N-(5-((3-cyano-7-(cyclopropylamino)pyrazolo[1,5-a]pyrimidin-5-yl)amino)-2-(3-(methylamino)piperidin-1-yl)phenyl)acetamide], which “[drawing 10] / CSNK2A1 pIC50^a” value (CSNK2A1) is on record?
A: 8.3 pIC50

Q: And the “[drawing 10] / CSNK2A2 pIC50^a” value (CSNK2A2)?
A: 8.4 pIC50

Q: For `CN[C@H]1CCN(c2ccc(Nc3cc(NC4CC4)n4ncc(C#N)c4n3)cc2NC(C)=O)C1` [2e, (S)-N-(5-((3-cyano-7-(cyclopropylamino)pyrazolo[1,5-a]pyrimidin-5-yl)amino)-2-(3-(methylamino)pyrrolidin-1-yl)phenyl)acetamide], which “[drawing 10] / CSNK2A1 pIC50^a” value (CSNK2A1) is on record?
A: 8.3 pIC50

Q: What about the “[drawing 10] / CSNK2A2 pIC50^a” value (CSNK2A2) of the same compound?
A: 8.4 pIC50

Q: What does the source list for `CC(=O)Nc1cc(Nc2cc(NC3CC3)n3ncc(C#N)c3n2)ccc1N(C)C[C@@H]1CCCN1` [2f, (S)-N-(5-((3-cyano-7-(cyclopropylamino)pyrazolo[1,5-a]pyrimidin-5-yl)amino)-2-(methyl(pyrrolidin-2-ylmethyl)amino)phenyl)acetamide]?
A: [drawing 10] / CSNK2A1 pIC50^a (CSNK2A1): 8.4 pIC50; [drawing 10] / CSNK2A2 pIC50^a (CSNK2A2): 8.5 pIC50

Q: For `CN[C@@H]1CCN(c2ccc(Nc3cc(NC4CC4)n4ncc(C#N)c4n3)cc2NC(C)=O)C1` [2d, (R)-N-(5-((3-cyano-7-(cyclopropylamino)pyrazolo[1,5-a]pyrimidin-5-yl)amino)-2-(3-(methylamino)pyrrolidin-1-yl)phenyl)acetamide], which “[drawing 10] / CSNK2A1 pIC50^a” value (CSNK2A1) is on record?
A: 8.6 pIC50

Q: And the “[drawing 10] / CSNK2A2 pIC50^a” value (CSNK2A2)?
A: 8.8 pIC50
